Measured values taken from ChEMBL document CHEMBL1157539, “Thousands of chemical starting points for antimalarial lead identification” (Nature, 2010).

What follows are compounds tested on Plasmodium falciparum (assay: GSK_TCMDC: Inhibition of Plasmodium falciparum 3D7 in whole erythrocytes, using parasite LDH activity as an index of growth.). Conditions: Plasmodium falciparum, 3D7.
Format: functional, organism-based

SMILES	XC50 [nM]
O=C(c1cc(C(=O)Nc2ccccc2)c(=O)n(-c2ccccc2)c1)c1cc(Cl)ccc1O	390
NC(=O)c1cccc(CNC(=O)NC[C@H]2CN(Cc3ccc(Cl)c(Cl)c3)CCO2)c1	586
COc1ccc2nccc([C@@H](O)CN3CCC(NCc4nc5c(C#N)cccc5[nH]4)CC3)c2c1	999
CCCN(CCC)S(=O)(=O)c1ccc(C(=O)N2CCC(C(=O)OCC)CC2)cc1	803
CC=CCON1C(=N)NC(=N)NC1(C)C	27.9
CNC(=O)c1cc(S(=O)(=O)Nc2ccc(OC)cc2)cs1	1130
Cc1[nH]c(C)c([N+](=O)[O-])c(=O)c1-c1ccc(Oc2ccc(OC(F)(F)F)cc2)cc1	247
Cc1cccc2nc(-c3ccc(-c4ccc(CN5CCN(CCN6CCOCC6)CC5)cc4)cc3)[nH]c12	231
COc1ccc2ncc(F)c(CCN3C4CCC3CC(NCc3cc5c(cn3)OCS5)C4)c2n1 (stereo unspecified)	923
CS(=O)(=O)Cc1ccc(Nc2nccc(-c3c(-c4cccc(NC(=O)c5c(F)cccc5F)c4)nn4ncccc34)n2)cc1	162
COc1ccc(C(=O)Nc2cc(Br)c3c(c2)CNCC3)cc1C(F)(F)F	1070
CCCCNCc1ccc(-c2nc(CN(Cc3ccc(Cl)c(Cl)c3)S(=O)(=O)c3ccc(NC(C)=O)cc3)cs2)cc1	1030
O=C(c1ccccc1NN=C1C(=O)N(c2ccccc2)N=C1c1ccccc1)N1CCOCC1	351
CCCCOC(=O)[C@H](CCC)NC(=O)c1ccc(NS(=O)(=O)c2ccc3nc(N)[nH]c(=O)c3c2)cc1	198
O=C(Nc1cccc(CN2CCN(Cc3ccc(O)cc3)CC2)c1)c1cc2ccccc2o1	1180
N=C(N)NCCCC(=O)NCC(N)=O	165
CN(C)CCCNC(=O)c1ccccc1Sc1ccccc1C#N	1140
O=C(Nc1cccc(-c2cccc(-c3nc4cc(C(F)(F)F)ccc4[nH]3)c2)c1)c1ccncc1	201
Cc1cc2nc(-c3cccc(C(=O)NC4CCN(Cc5ccccc5)CC4)c3)[nH]c2cc1C	828
COc1ccc(NC(=O)C2c3ccccc3C(=O)N(C3CCCC3)C2c2cccs2)cc1 (stereo unspecified)	1710
Cc1cc(NCCCCCCNc2cc(C)nc3c(C)cccc23)c2cccc(C)c2n1	406
Cc1ccccc1C1CCN(C2CCC(NC(=O)/C=C/c3cc(F)ccc3C(F)(F)F)CC2)CC1 (stereo unspecified)	953
CCOC(=O)C(NC(=O)c1ccc([N+](=O)[O-])o1)C(C)C (stereo unspecified)	1060
O=C(/C=C/c1ccc(Cl)c(Cl)c1)NC1CCC(CN2CCC(c3c[nH]c4ccccc34)CC2)CC1 (stereo unspecified)	235

SMILES	XC50 [nM]
Cc1noc(C)c1CN1Cc2ccccc2OC2(CCN(Cc3c[nH]c4cnccc34)CC2)C1	1070
CC(C)N1CCN(C(CN2CCN(CCCOc3ccc4ccccc4c3)CC2)c2ccc(F)cc2)CC1 (stereo unspecified)	581
O=C(Nc1cccc(CN2CCCN(CC3CCCCC3)CC2)c1)c1ccc(Cl)c(Cl)c1	962
COc1cc(Cc2cnc(N)nc2N)cc(OCc2cccc(C(=O)O)c2)c1OC	835
Cc1cccc2nc(-c3cccc(-c4cccc(CN5CCCC5CN)c4)c3)[nH]c12 (stereo unspecified)	767
Cc1c(Cc2ccc(C(C)C)cc2)cnc2nc(N)nc(N)c12	298
c1csc(-c2nc(N3CCCCC3)ncc2-c2ccsc2)n1	136
COc1cc(NC(=O)c2sc(-c3ccc(Cl)cc3)cc2NC(=O)c2ccncc2)ccc1OCCN1CCCC1	31.5
Cc1cc(C)c(CON2C(=N)N=C(N)NC2(C)C)cc1C	3.63
CN(C)c1ccc(CN2CCC(CNC(=O)c3cc(-c4cccc(C(F)(F)F)c4)cs3)C2)cc1 (stereo unspecified)	882
O=C(Nc1ccc(Cl)cc1)c1ccc(CN2CCCN(CC3CCCCC3)CC2)cc1	220
CCN1CCC(N2CCC(C(=O)Nc3cccc(-c4cccc(Cl)c4)c3)CC2)CC1	1080
CC(C)(C)C(C)(C)Cc1ccc(O)c(CN2CCN(c3ccccc3)CC2)c1	601
CC(=O)NCCNc1cc(N2CCc3ncnc(Nc4ccc(OCc5c(F)cccc5F)c(Cl)c4)c3C2)ncn1	160
CN(c1ccc(NC(=O)Nc2cc(C(C)(C)C)on2)cc1)c1ccnc(NCCN2CCOCC2)n1	1120
CC(C)(C)c1ccc(OC(=O)c2ccc(NC(=O)N[C@@H](Cc3ccc(O)cc3)C(=O)NC3CCN(Cc4ccc(O)cc4)C3)cc2)cc1 (stereo partly specified)	814
Cn1cnc2nc(NCCc3ccccc3)nc(NCc3cccc4ccccc34)c21	327
CN1CCC(NC(=O)c2cc(Oc3ccc4c(c3)CCN4C(=O)Nc3cccc(C(F)(F)F)c3)ccn2)CC1	930
CCOC(=O)c1ccc(N2CCN(c3cc(C)ccc3C)CC2)c(NC(=O)Nc2ccc(Cl)c(Cl)c2)c1	712
FC(F)(F)c1cccc(N2CCC(CN3CCC(c4c[nH]c5ccccc45)CC3)CC2)n1	980
Cc1ccc(NC(=O)NC2CCN(CCCCCNC(=O)/C=C/c3ccc(Cl)c(Cl)c3)CC2)cc1	694
CCOc1cc(C(=O)N[C@@H](Cc2ccccc2)[C@H](O)CNCc2cccc(OC)c2)cc(N2CCCCS2(=O)=O)c1	721
CCC[C@@H]([C@@H](CC(C)C)C(=O)N[C@@H](CCC/N=C(/N)NS(C)(=O)=O)C(=O)Nc1nccs1)N(O)C=O	941
O=S(=O)(/C=C/c1ccccc1)N(Cc1ccc(-c2ccc(CNCCOc3ccccc3)cc2)cc1)CC1CCCCN1 (stereo unspecified)	744

SMILES	XC50 [nM]
Cc1sc(CNCCCNc2cc(=O)c3ccccc3[nH]2)c(I)c1C	849
O=C(O)c1ccc2nc(-c3ccc(-c4ccccc4)cc3)n(C3CCN(Cc4ccc(-c5ncc[nH]5)cc4)CC3)c2c1	1730
O=C(NC1CCCCN(Cc2ccccc2O)C1)c1cccc(Cl)c1 (stereo unspecified)	1060
COc1c(CCNCCCCNCCc2cc(Cl)c3ccccc3c2OC)cc(Cl)c2ccccc12	168
COc1ccc2ncc(F)c([C@H](O)CN3CCC(NCc4ccc5c(c4)NC(=O)CO5)CC3)c2c1	172
CCCCNCc1ccc(-c2nc(CN(CCCn3ccnc3)C(=O)C3COc4ccccc4O3)cs2)cc1 (stereo unspecified)	892
CC(CN(C)C)C(=O)Nc1ccc(-c2cccc(-c3nc4ccccc4[nH]3)c2)cc1 (stereo unspecified)	722
Cc1cc(N[C@@H](CC(C)C)C(=O)NCCOc2ccccc2)nc(Nc2ccccc2)n1	1110
CC(C)c1ccc(-c2noc(SCC(=O)N3CCCCC3C)n2)cc1 (stereo unspecified)	1670
CCOc1cc2ncnc(Nc3ccc(OCc4ccccc4F)c(Cl)c3)c2cc1OCC	601
COc1ccc(-n2nc(C)cc2C(=O)NCc2ccc(-c3c(C)noc3C)cc2)cc1	980
COc1ccc(-c2cccc(NC(=O)c3ccc(Cl)cc3)c2)cc1CN1CCC(O)CC1	791
C#CCOc1ccc(N2C(N)=NC(N)=NC2(C)C)cc1	65.8
COc1cc(C(=O)Nc2cccc(-c3cn4cccc(C)c4n3)c2)cc(OC)c1OC	697
CCC(Cc1ccccc1)c1cc(O)c(Cc2ccc(-c3ccccc3)cc2)c(=O)o1 (stereo unspecified)	971
COc1ccc(NC(=O)Nc2ccc(-c3ccc(-c4nc5ccccc5[nH]4)cc3)cc2)cc1	509
CC(C)c1ccc(NC(=O)c2ccc(C(=O)NC3CCN(CC4CCCCC4)CC3)cc2)cc1	645
Cc1cc(=NN=Cc2ccc(F)cc2)c2cc(C(F)(F)F)ccc2[nH]1	228
COc1ccc2nccc([C@@H](O)CN3CCC(NC(=O)/C=C/c4ccc5ccccc5n4)CC3)c2c1	993
N#Cc1ccc(N(CCOc2ccc(Cl)c(Cl)c2)Cc2ccccc2C(F)(F)F)cc1C(F)(F)F	1110
CN(CC(=O)N1CCN(S(=O)(=O)c2cccc(Cl)c2)CC1CN1CCCC1)c1ccc(Cl)c(Cl)c1 (stereo unspecified)	1240
O=C(Nc1cccc(Cl)c1)c1cnc(N2CCN(c3ccncc3)CC2)c(Cl)c1	963
CN1CCC(NCc2ccc(-c3cccc(S(=O)(=O)NCC4CCCO4)c3)cc2)CC1 (stereo unspecified)	939
Cn1cccc1CCNCc1ccc(-c2cccc(-c3nc4ccccc4[nH]3)c2)cc1	1210

SMILES	XC50 [nM]
Cc1cc(N[C@@H](Cc2ccccc2)C(=O)NCCOc2ccccc2)nc(NCCc2cccs2)n1	997
O=C(CCN1CCCCC1)Nc1ccc(Nc2nccc(NCC(O)c3ccccc3)n2)cc1 (stereo unspecified)	721
Cc1nc2nc(N)nc(N)c2c(C)c1Cc1ccc(C(F)(F)F)cc1	747
CC(C)N(C(=O)CSc1nc2cc(Cl)ccc2c(=O)n1Cc1ccccc1)C(C)C	167
CC(C)Sc1nc2c(c(=O)n1CCc1ccccc1)C1(CCCC1)Cc1ccccc1-2	347
O=C(/C=C/c1ccc(Cl)c(Cl)c1)NCCCCCN1CCCC(CNS(=O)(=O)c2ccc(F)cc2)C1 (stereo unspecified)	1160
CCN1CCCC1CNC(=O)c1cc2c(-c3ccc(Cl)cc3)nn(C)c2s1 (stereo unspecified)	788
O=C(NCCc1ccc(Cl)c(Cl)c1)[C@@H]1CCCN1C(=O)c1ccc(O)c(-c2ccc(Cl)c(Cl)c2)c1	550
CCN(CCCN1CCCCC1)c1cc(C)nc(Nc2ccc(C)cc2Cl)n1	339
CC(C)CNCc1ccc(-c2ccccc2CNC2CCN(Cc3ccccc3)CC2)cc1	565
O=S(=O)(Nc1ccc(CCN2CCC(N3CCCCC3)CC2)cc1)c1cccc(C(F)(F)F)c1	702
NC1CCN(Cc2cccc(-c3cccc(-c4nc5ccccc5[nH]4)c3)c2)C1 (stereo unspecified)	790
COc1cc2nc(NCc3cccc(CNC(=O)c4ccc(-c5ccc(C(C)=O)cc5)cc4)c3)nc(N)c2cc1OC	118
CCOC(=O)c1cc(C(=O)NCCCCN2CCC(c3ccc4c(c3OC)CCCC4)CC2)ccc1-c1ccc(C(F)(F)F)cc1	707
COc1ccc(CN2CCC(CNCCc3c(Cl)cccc3Cl)CC2)cc1	435
C[C@H](NC(=O)c1cc(-c2ccc(C(C)(C)C)cc2)no1)C(=O)O.C[C@H](NC(=O)c1conc1-c1ccc(C(C)(C)C)cc1)C(=O)O	140
Cc1cccc2nc(-c3ccc(-c4cccc(CNCCCNS(C)(=O)=O)c4)cc3)[nH]c12	1220
O=C(Nc1ccc(Cl)cc1)c1ccc(CN2CCCN(Cc3ccccc3)CC2)cc1	753
CCNc1cc(C(=O)N[C@@H](Cc2ccccc2)[C@H](O)CNC2CCCCC2)cc(N2CCCCS2(=O)=O)c1	170
COc1ccc2c(NN=Cc3ccccc3)ccnc2c1	130
FC(F)(F)Oc1cccc(CNc2noc(-c3sccc3Br)n2)c1	875
COc1ccc(N2CCN(C(CNC(=O)C3CCCCC3)c3ccc4c(c3)OCO4)CC2)cc1 (stereo unspecified)	566
O=C(NCCN1CCCCC1)N1CCCN(c2ncnc3cc(-c4ccccc4)sc23)CC1	231
O=C(Nc1ccc(Oc2ccc(OC(F)(F)F)cc2)cc1)c1ccco1	1130
